Results published in US12702676B2, “Fosfomycin dosing regimens” (priority 2017, dated 2026).

Key:
[1] = system: baseline bacterial pathogen in cUTI or AP; assay: ZEUS Phase 2/3 noninferiority trial, efficacy at TOC in hospitalized adults; assay type: in vivo, human; settings: for overall success rates at TOC: m-MITT population, clinical cure plus microbiologic eradication, 6 g ZTI-01 q8h or 4.5 g P-T q8h IV; for overall success rates using unique pathogen strains typed by PFGE: post-hoc analysis
Experimental: Oral step-down therapy was prohibited (FIG. 4).
A post-hoc analysis using pulsed-field gel electrophoresis (PFGE) was performed to molecularly type all baseline and TOC pathogens (both treatment arms), in order to confirm microbiological eradication/persistence; a total of 20 post-baseline pathogens were identified as unique, unrelated strains compared to baseline.

[2] = ZEUS Phase 2/3 trial, safety (adverse events); settings: for Any AEs / Any TEAEs / Drug-related SAE / Drug-related TEAEs / SAEs / Serious TEAEs leading to study drug discontinuation / TEAEs leading to study drug discontinuation / TEAEs: Mild / TEAEs: Moderate / TEAEs: Severe: MITT Safety Population (n = 233 ZTI-01, n = 231 P-T); for SAE related to study drug (1 in each treatment group): in vivo
[3] = Bacteremia, m-MITT (N1 19 ZTI-01, 13 P-T)
[4] = CE-TOC (N1 199 ZTI-01, 196 P-T)
[5] = ME-TOC (N1 155 ZTI-01, 145 P-T)
[6] = Original Analysis, ME-TOC (N1 155 ZTI-01, 145 P-T)
[7] = Original Analysis, m-MITT (N1 184 ZTI-01, 178 P-T)
[8] = Post-hoc Analysis Using PFGE Typing, ME-TOC (N1 155 ZTI-01, 145 P-T)
[9] = Post-hoc Analysis Using PFGE Typing, m-MITT (N1 184 ZTI-01, 178 P-T)
[10] = SIRS, m-MITT (N1 62 ZTI-01, 52 P-T)
[11] = m-MITT (N1 184 ZTI-01, 178 P-T)

## C[C@@H]1O[C@@H]1P(=O)(O)O [ZTI-01, fosfomycin]
[1]; [3]
  Clinical Response at TOC: Eradication: 15 (78.9%) n (%)
  Clinical Response at TOC: Indeterminate: 2 (10.5%) n (%)
  Clinical Response at TOC: Persistence: 2 (10.5%) n (%)
  Overall Response at TOC: Eradication: 9 (47.4%) n (%)
  Overall Response at TOC: Indeterminate: 3 (15.8%) n (%)
  Overall Response at TOC: Persistence: 7 (36.8%) n (%)
  Per-patient Microbiological Response at TOC: Eradication: 9 (47.4%) n (%)
  Per-patient Microbiological Response at TOC: Indeterminate: 4 (21.2%) n (%)
  Per-patient Microbiological Response at TOC: Persistence: 6 (31.6%) n (%)
[1]; [4]
  Clinical Response at TOC: Cure: 188 (94.5%) n (%)
  Clinical Response at TOC: Failure: 11 (5.5%) n (%)
[1]; CE-TOC, 95% CI (−3.7, 6.9)
  Clinical Response at TOC: Treatment Difference (ZTI-01 vs P-T): 1.6%
[1]; [5]
  Clinical Response at TOC: Cure: 148 (95.5%) n (%)
  Clinical Response at TOC: Failure: 7 (4.5%) n (%)
[1]; ME-TOC, 95% CI (−3.5, 8.3)
  Clinical Response at TOC: Treatment Difference (ZTI-01 vs P-T): 2.4%
[1]; MITT (N1 233 ZTI-01, 231 P-T)
  Clinical Response at TOC: Cure: 211 (90.6%) n (%)
  Clinical Response at TOC: Failure: 11 (4.7%) n (%)
  Clinical Response at TOC: Indeterminate: 11 (4.7%) n (%)
[1]; MITT, 95% CI (−6.8, 4.4)
  Clinical Response at TOC: Treatment Difference (ZTI-01 vs P-T): −1.2%
[1]; [6]
  Microbiological Response at TOC: Eradication: 109 (70.3%) n (%)
  Microbiological Response at TOC: Persistence: 46 (29.7%) n (%)
[1]; [7]
  Microbiological Response at TOC: Eradication: 121 (65.8%) n (%)
  Microbiological Response at TOC: Indeterminate: 13 (7.1%) n (%)
  Microbiological Response at TOC: Persistence: 50 (27.2%) n (%)
[1]; [8]
  Microbiological Response at TOC: Eradication: 117 (75.5%) n (%)
  Microbiological Response at TOC: Persistence: 38 (24.5%) n (%)
[1]; [9]
  Microbiological Response at TOC: Eradication: 130 (70.7%) n (%)
  Microbiological Response at TOC: Indeterminate: 13 (7.1%) n (%)
  Microbiological Response at TOC: Persistence: 41 (22.3%) n (%)
[1]; [10]
  Clinical Response at TOC: Eradication: 55 (88.7%) n (%)
  Clinical Response at TOC: Indeterminate: 4 (6.5%) n (%)
  Clinical Response at TOC: Persistence: 3 (4.8%) n (%)
  Overall Response at TOC: Eradication: 41 (66.1%) n (%)
  Overall Response at TOC: Indeterminate: 5 (8.1%) n (%)
  Overall Response at TOC: Persistence: 16 (25.8%) n (%)
  Patient Microbiological response at TOC: Eradication: 41 (66.1%) n (%)
  Patient Microbiological response at TOC: Indeterminate: 7 (11.3%) n (%)
  Patient Microbiological response at TOC: Persistence: 14 (22.6%) n (%)
[1]; [11]
  Clinical Response at TOC: Cure: 167 (90.8%) n (%)
  Clinical Response at TOC: Failure: 9 (4.9%) n (%)
  Clinical Response at TOC: Indeterminate: 8 (4.3%) n (%)
[1]
  overall success rates at TOC: 64.7%
[1]; m-MITT, TOC, 95% CI −0.4, 20.8
  difference in overall success rate (ZTI-01 vs P-T): 10.2%
[1]; m-MITT, 95% CI (−7.2, 5.6)
  Clinical Response at TOC: Treatment Difference (ZTI-01 vs P-T): −0.8%
[1]; m-MITT, TOC
  overall success rates using unique pathogen strains typed by PFGE: 69.0%
[1]; post-hoc, 95% CI 1.3, 22.1
  difference in overall success rate using PFGE typing (ZTI-01 vs P-T): 11.7%
[1]; preferred dosing regimen 6 g tid
  effective (patients with AP): 68%
[2]
  Any AEs: 99 (42.5%) n (%)
  Any TEAEs: 98 (42.1%) n (%)
  Drug-related SAE: 1 (0.4%) n (%)
  Drug-related TEAEs: 48 (20.6%) n (%)
  SAEs: 5 (2.1%) n (%)
  Serious TEAEs leading to study drug discontinuation: 0 (0%) n (%)
  TEAEs leading to study drug discontinuation: 7 (3.0%) n (%)
  TEAEs: Mild: 84 (36.1%) n (%)
  TEAEs: Moderate: 35 (15.0%) n (%)
  TEAEs: Severe: 5 (2.1%) n (%)
  SAE related to study drug (1 in each treatment group): hypokalemia
[2]; majority of AEs mild to moderate
  tolerability: generally well tolerated
[2]; safety population (n=464)
  treatment-emergent adverse events (TEAEs) observed, % of patients: 42.1%

## piperacillin/tazobactam [P-T]
[1]; [3]
  Clinical Response at TOC: Eradication: 10 (76.9%) n (%)
  Clinical Response at TOC: Indeterminate: 0 (0%) n (%)
  Clinical Response at TOC: Persistence: 3 (23.1%) n (%)
  Overall Response at TOC: Eradication: 5 (38.5%) n (%)
  Overall Response at TOC: Indeterminate: 0 (0%) n (%)
  Overall Response at TOC: Persistence: 8 (61.5%) n (%)
  Per-patient Microbiological Response at TOC: Eradication: 6 (46.2%) n (%)
  Per-patient Microbiological Response at TOC: Indeterminate: 0 (0%) n (%)
  Per-patient Microbiological Response at TOC: Persistence: 7 (53.8%) n (%)
[1]; [4]
  Clinical Response at TOC: Cure: 182 (92.9%) n (%)
  Clinical Response at TOC: Failure: 14 (7.1%) n (%)
[1]; [5]
  Clinical Response at TOC: Cure: 135 (93.1%) n (%)
  Clinical Response at TOC: Failure: 10 (6.9%) n (%)
[1]; MITT (N1 233 ZTI-01, 231 P-T)
  Clinical Response at TOC: Cure: 212 (91.8%) n (%)
  Clinical Response at TOC: Failure: 16 (6.9%) n (%)
  Clinical Response at TOC: Indeterminate: 3 (1.3%) n (%)
[1]; [6]
  Microbiological Response at TOC: Eradication: 86 (59.3%) n (%)
  Microbiological Response at TOC: Persistence: 59 (40.7%) n (%)
[1]; [7]
  Microbiological Response at TOC: Eradication: 100 (56.2%) n (%)
  Microbiological Response at TOC: Indeterminate: 9 (5.1%) n (%)
  Microbiological Response at TOC: Persistence: 69 (38.8%) n (%)
[1]; [8]
  Microbiological Response at TOC: Eradication: 93 (64.1%) n (%)
  Microbiological Response at TOC: Persistence: 52 (35.9%) n (%)
[1]; [9]
  Microbiological Response at TOC: Eradication: 107 (60.1%) n (%)
  Microbiological Response at TOC: Indeterminate: 9 (5.1%) n (%)
  Microbiological Response at TOC: Persistence: 62 (34.8%) n (%)
[1]; [10]
  Clinical Response at TOC: Eradication: 48 (92.3%) n (%)
  Clinical Response at TOC: Indeterminate: 2 (3.8%) n (%)
  Clinical Response at TOC: Persistence: 2 (3.8%) n (%)
  Overall Response at TOC: Eradication: 39 (75.0%) n (%)
  Overall Response at TOC: Indeterminate: 2 (3.8%) n (%)
  Overall Response at TOC: Persistence: 11 (21.2%) n (%)
  Patient Microbiological response at TOC: Eradication: 40 (76.9%) n (%)
  Patient Microbiological response at TOC: Indeterminate: 2 (3.8%) n (%)
  Patient Microbiological response at TOC: Persistence: 10 (19.2%) n (%)
[1]; [11]
  Clinical Response at TOC: Cure: 163 (91.6%) n (%)
  Clinical Response at TOC: Failure: 12 (6.7%) n (%)
  Clinical Response at TOC: Indeterminate: 3 (1.7%) n (%)
[1]
  overall success rates at TOC: 54.5%
[1]; m-MITT, TOC
  overall success rates using unique pathogen strains typed by PFGE: 57.3%
[2]
  Any AEs: 74 (32.0%) n (%)
  Any TEAEs: 74 (32.0%) n (%)
  Drug-related SAE: 1 (0.4%) n (%)
  Drug-related TEAEs: 32 (13.9%) n (%)
  SAEs: 6 (2.6%) n (%)
  Serious TEAEs leading to study drug discontinuation: 1 (0.4%) n (%)
  TEAEs leading to study drug discontinuation: 6 (2.6%) n (%)
  TEAEs: Mild: 49 (21.2%) n (%)
  TEAEs: Moderate: 38 (16.5%) n (%)
  TEAEs: Severe: 4 (1.7%) n (%)
  SAE related to study drug (1 in each treatment group): renal insufficiency
